# Data from the METLIN SMRT retention time set (Domingo-Almenara et al. 2019).
# Experiment: gradient 5% acetonitrile 3 min, to 50% in 2 min, to 85% in 15 min, held 3 min, 100 µL/min
# Settings: column: Zorbax Extend-C18 2.1 x 50 mm; eluents: water / acetonitrile, 0.1% formic acid
# Procedure, shortened: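 A Zorbax Extend-C18 column (2.1 × 50 mm, 1.8 μm) run at 100 μL/min with water and acetonitrile, both containing 0.1% formic acid, separated mixtures of ~100 pure standards. The HPLC was coupled to a quadrupole time-of-flight mass spectrometer operated in positive and negative ionization mode, with dead and dwell volumes of 40 μL and 900 μL. Each retention time was taken from a computationally picked adduct peak that was then manually inspected.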
row,Compound,RP-LC retention time
1,O=C(CCC1CCCC1)Nc1ccc(-c2nnc3n2CCCC3)cc1,765 s
2,O=C1Nc2ccccc2C12OCC1(CO2)COC2(OC1)C(=O)Nc1ccccc12 (configuration not stated),784 s
3,COc1ccccc1-c1noc(-c2nnn3c2COC(c2ccc(F)cc2)C3)n1 (configuration not stated),1040 s
4,CCOC(=O)C1CCN(C(=O)C2CCCN(c3ncnc4c3nc3n4CCCCC3)C2)CC1 (configuration not stated),726 s
5,CC(C)c1noc(C2(NC(=O)c3cccc(Cl)c3)CCCCC2)n1,1130 s
6,Cc1ccc(NC(=O)C2CCCN(c3ccc(=O)n(-c4cccc(Cl)c4)n3)C2)c(C)c1 (configuration not stated),964 s
7,Cc1ccc(-c2cc(N3CCN(C(=O)c4ccc(C)c(C)c4)CC3)ncn2)cc1,736 s
8,Cc1ccc(CNC(=O)C2CCCN(c3cnc4nccnc4c3)C2)o1 (configuration not stated),772 s
9,Cc1cc(C)c(NC(=O)Cn2nc3n(c2=O)CCCC3)c(C)c1,684 s
10,Cc1noc(C)c1C(=O)N1CCCn2ccnc2C1C1CCCC1 (configuration not stated),587 s
11,Cc1ccc(S(=O)(=O)N2CCC3(CC2)CC(C)(O)CCO3)cc1Cl (configuration not stated),888 s
12,COc1ccc(OC)c2sc(NC(=O)c3cc(Cl)sc3Cl)nc12,1010 s
13,CCN1c2ccc(C)cc2C(=O)NC12CCN(C(=O)Cc1ccc(C)cc1)CC2,887 s
14,Cn1c(=O)c2cc(C(=O)Nc3ccc(F)cc3)cnc2n(-c2ccc(F)cc2)c1=O,960 s
15,CCS(=O)(=O)N1CCCc2cc(C(=O)Nc3cc(OC)ccc3OC)ccc21,954 s
16,CC(C)(C)C(=O)NC1CCN(C(=O)C2CC2)C1 (configuration not stated),623 s
17,COCCOCc1nc(C2CCCN2S(=O)(=O)c2cc(F)ccc2F)no1 (configuration not stated),830 s
18,CCN1CCN(C(=O)c2cc3n(n2)CC(C)(C(=O)NC2CCCCC2)N(C)C3=O)CC1 (configuration not stated),584 s

row,Compound,RP-LC retention time
1,O=C(Nc1ccccc1F)N1CC2CN(S(=O)(=O)c3ccc(F)cc3)CC(C1)O2,758 s
2,Cc1ccc(CNC(=O)C2CCN(Cc3cc4ccccc4n3Cc3cccc(Cl)c3)CC2)o1,943 s
3,O=S(=O)(c1c(Cl)cccc1Cl)N1CCN(Cc2ccc3c(c2)OCO3)CC1,595 s
4,Cc1ccc(-c2nnc(Cc3nc(-c4ccc(Cl)cc4)no3)o2)cc1C,1220 s
5,COc1ccc(NC(=O)c2cn(-c3cc(N4CCCCC4C)ncn3)cn2)cc1OC (configuration not stated),939 s
6,CCc1ccc(N2CCC(C(=O)NCCc3c[nH]c4ccc(C)cc34)C2=O)cc1 (configuration not stated),1010 s
7,CC1CCN(S(=O)(=O)c2ccc(-c3nnc(C(=O)NC(C)C)o3)cc2)CC1,934 s
8,Cc1ccc(-c2nc(C3CC(=O)N(c4ccc(F)cc4)C3)no2)cc1 (configuration not stated),1030 s
9,COc1ccc(-c2noc(C3CCCN3C(=O)Nc3ccc(C)cc3C)n2)cc1 (configuration not stated),925 s
10,CC1CCN(S(=O)(=O)N2CCC(C(=O)N3CCC(Cc4nncn4CC4CC4)CC3)CC2)CC1,751 s
11,O=c1n(CC2CC2)nc2n1CCN(Cc1cccc(O)c1)C2,610 s
12,Cc1ccc(-n2nc(C)c(S(=O)(=O)N3CCN(c4ccccn4)CC3)c2C)cc1,721 s
13,CCc1nncn1C1CCN(S(=O)(=O)c2ccc(OC)c(Cl)c2)CC1,736 s
14,CCCNC(=O)C1CCCN(c2nc3ncn(CC(=O)Nc4ccc(CC)cc4)c(=O)c3s2)C1 (configuration not stated),741 s
15,Cc1nncn1C1CCN(S(=O)(=O)c2ccccc2F)CC1,654 s
16,CCCn1ncc(N2CCC(C(=O)NCCCN3CCCC3=O)CC2)cc1=O,594 s
17,COc1ccc(/C=C/c2nc(C#N)c(NCCCN(C)C)o2)cc1OC,629 s
18,Cc1ccccc1-c1noc(CN2C(=O)COc3cc(Cl)ccc32)n1,1150 s

# Second part, the compound after the results:
row,RP-LC retention time,Compound
1,1350 s,CCn1cc(-c2nc(C(=O)Nc3ccc(Cl)cc3F)cs2)c2cccnc21
2,542 s,O=c1cc(CO)oc(C(Nc2ccccn2)c2cccc(F)c2)c1O (configuration not stated)
3,724 s,COC(=O)c1ccccc1NC(=O)CCc1c(-c2ccc(F)cc2)nc2ccccn12
4,817 s,COc1ccccc1C(=O)N1CCC(COc2ccc(C(=O)NC(C)C)cc2)CC1
5,614 s,O=C(NCc1cccs1)c1ccc(-c2cccnc2)nc1
6,722 s,COc1ccc(Cc2nnc(NC(=O)c3cnc4ccccc4n3)o2)cc1
7,867 s,Cc1noc(-c2ccnc(-n3cnc(C(=O)NC(C)c4ccccc4)c3)c2)n1 (configuration not stated)
8,935 s,O=C(c1ccc([N+](=O)[O-])cc1)N(Cc1ccccc1)Cc1ccco1
9,829 s,CCOC(=O)C(=O)Nc1nnc(SCc2nnc(-c3ccccc3C)o2)s1
10,873 s,CC(NC(=O)CCCn1c2ccccc2c2cnn(C)c(=O)c21)c1ccccc1 (configuration not stated)
11,980 s,CCn1cc(-c2nc(CC(=O)Nc3ccccc3C)cs2)c2cccnc21
12,1020 s,CC(C)(C)c1ccc(O)c(NC(=O)c2cn(-c3ccc(S(=O)(=O)N4CCCC4)cc3)cn2)c1
13,854 s,Cc1ccc(CNC(=O)N2CCN(Cc3nc4cc(-c5ccccc5)ccc4o3)CC2)cc1
14,577 s,O=C(CCc1csc(NC(=O)c2ccc(F)cc2)n1)NCc1nc2ccccc2[nH]1
15,672 s,Cc1csc(-c2ccc(CNC(=O)c3cccnc3)cc2)n1
16,842 s,COc1ccccc1-c1noc(C2CCCN2C(=O)Nc2ccc(F)cc2)n1 (configuration not stated)

row,RP-LC retention time,Compound
1,661 s,CCn1cc(CCNC(=O)Nc2ccc3c(c2)OCCO3)c2cccnc21
2,855 s,CC(=O)Nc1ccc(NC(=O)c2nc3ccccn3c2-c2ccc(Cl)cc2)cc1
3,595 s,O=c1ccc(-c2cccc(Br)c2)nn1Cc1ccncc1
4,927 s,CN(C)c1cccc(C(=O)Nc2cc(-c3ccsc3)no2)c1
5,992 s,COc1ccccc1-c1coc2cc(OC(=O)c3cccs3)ccc2c1=O
6,757 s,COCCN(CC(=O)N1CCc2sccc2C1COc1ccccc1OC)C(C)=O (configuration not stated)
7,783 s,Nc1ccc(C(=O)c2ccccc2)cc1[N+](=O)[O-]
8,928 s,Cc1ccc(Cn2cccc2C(=O)C(=O)NC2CC2)cc1
9,616 s,Cc1cc(F)cc2c(=O)c3c([nH]c12)CCN(CC(=O)Nc1ccccc1)C3
10,705 s,CCn1cc(CCNC(=O)c2sccc2C)c2cccnc21
11,662 s,COc1cccc2[nH]c(C(=O)NCCC(=O)NCCc3c[nH]c4ccccc34)cc12
12,944 s,COc1ccccc1-c1noc(C2CCCN2C(=O)Nc2cccc(Br)c2)n1 (configuration not stated)
13,1110 s,COC(=O)c1c(-c2ccccc2)csc1NC(=O)c1ccnn1C
14,821 s,Cc1ccc(-c2cc(C(=O)O)c3ccccc3n2)c(C)c1
15,650 s,O=C(NC1CC1)c1ccccc1OCC1CCCN(Cc2cc3ccccc3nc2Cl)C1 (configuration not stated)
